From article PMC7917639, “Nopol-Based Quinoline Derivatives as Antiplasmodial Agents” (Molecules, 2021)

Test system: Human hepatocarcinoma cell line (Hep G2)
Assay: Cytotoxicity assay (MTT)
Format: cell-based
Details: SDS 0.1%, assay positive control

CCCCCCCCCCCCOS(=O)(=O)[O-].[Na+] [SDS (0.1%)]
Hep G2 percent viability: ^b 1%
